Reference: patent publication US7652011B2, “4-[(arylmethyl)aminomethyl]piperidine derivatives, their preparation and their therapeutic application” (sanofi-aventis, priority 2003, dated 2010)

melting point: 104 to 105 °C
SMILES: Cn1cccc1CNCC1(c2cccc(C(F)(F)F)c2)CCN(C(=O)CN2CCN(c3cnccn3)CC2)CC1 [Compound 1, [(1-Methyl-1H-pyrrol-2-yl)methyl][[1-[(4-pyrazin-2-ylpiperazin-1-yl)acetyl]-4-[3-(trifluoromethyl)phenyl]piperidin-4-yl]methyl]amine]
